The source of these data is US8716281B2, “Pyrimidine compounds that inhibit anaplastic lymphoma kinase” (Amgen Inc., priority 2010, dated 2014).

For this test, the target named is T1, wild-type human ALK cytoplasmic domain (amino acids 1058-1620) (Homo sapiens, UniProt Q9UM73).
T1 construct: The cytoplasmic domain (amino acids 1058-1620) of wild-type human ALK; GST (N); made in house; host or cells: SF9 insect cells
Nature of the test: ALK Inhibition in Enzyme Assay (Lance TR-FRET). Format: biochemical. An outline of the steps: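 Purified enzyme phosphorylated a biotinylated peptide substrate for 90 minutes at room temperature. Reactions were stopped with 20 mM EDTA in 50 mM Tris (pH 7.5), 100 mM NaCl, 0.05% BSA, 0.1% Tween-20. Phosphopeptide was detected by TR-FRET with SA-APC and Eu-W1024 anti-phosphotyrosine antibody PT66, excitation 320 nm.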
In general terms: In TR-FRET formats the signal depends on donor and acceptor labels being close together.

Setting [1] is: 2 nM enzyme, ATP at 40 μM (Km apparent), 90 minutes, mean of three replicates, read-out: ALK IC50.

Like-named read-outs stand apart in the source and are kept apart here.

T1 sequence (Q9UM73 1058-1620): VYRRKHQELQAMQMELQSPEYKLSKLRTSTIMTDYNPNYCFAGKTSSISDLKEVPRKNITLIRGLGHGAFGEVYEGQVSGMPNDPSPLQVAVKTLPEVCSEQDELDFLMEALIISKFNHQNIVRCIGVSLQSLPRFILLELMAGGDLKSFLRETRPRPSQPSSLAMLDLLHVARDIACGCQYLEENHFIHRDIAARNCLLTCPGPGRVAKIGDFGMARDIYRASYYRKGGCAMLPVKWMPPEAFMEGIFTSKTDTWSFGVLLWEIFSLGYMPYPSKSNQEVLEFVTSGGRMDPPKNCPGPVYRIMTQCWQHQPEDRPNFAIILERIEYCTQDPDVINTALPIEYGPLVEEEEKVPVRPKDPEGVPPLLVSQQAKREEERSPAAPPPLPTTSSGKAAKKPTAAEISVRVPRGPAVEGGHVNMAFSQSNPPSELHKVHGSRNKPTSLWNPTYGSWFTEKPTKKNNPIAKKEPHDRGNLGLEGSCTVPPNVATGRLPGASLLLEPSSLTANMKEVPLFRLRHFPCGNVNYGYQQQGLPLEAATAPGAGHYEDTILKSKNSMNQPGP

As usually defined, the IC50 is the midpoint of a concentration-inhibition curve. Take `COc1ccc(CCNC(=O)[C@H]2CCCN(c3ccnc(Nc4cc(OC)c(OC)c(OC)c4)n3)C2)cc1` [Example 93, (S)-N-(2-(4-methoxyphenyl)ethyl)-1-(2-((3,4,5-trimethoxyphenyl)amino)-4-pyrimidinyl)-3-piperidinecarboxamide]: the IC50 under setting [1] lay in the range of 100 to 1000 nM. Take `COc1cc(Nc2nccc(N3CCC[C@H](C(=O)NCCc4cccc(Br)c4)C3)n2)cc(OC)c1OC` [Example 94, (S)-N-(2-(3-bromophenyl)ethyl)-1-(2-((3,4,5-trimethoxyphenyl)amino)-4-pyrimidinyl)-3-piperidinecarboxamide]: the 50% inhibitory concentration (IC50) under setting [1] is < 50 nM. On the same count and under the same terms, the figure for `COc1cc(Nc2nccc(N3CCC[C@H](C(=O)NCCc4cccc(F)c4)C3)n2)cc(OC)c1OC` [Example 95, (S)-N-(2-(3-fluorophenyl)ethyl)-1-(2-((3,4,5-trimethoxyphenyl)amino)-4-pyrimidinyl)-3-piperidinecarboxamide] is 100 to 1000 nM; for `COc1cc(Nc2nccc(N3CCC[C@H](C(=O)NCCc4cccc(C(F)(F)F)c4)C3)n2)cc(OC)c1OC` [Example 96, (S)-N-(2-(3-(trifluoromethyl)phenyl)ethyl)-1-(2-((3,4,5-trimethoxyphenyl)amino)-4-pyrimidinyl)-3-piperidinecarboxamide] it is < 50 nM. Same read-out and setting: to `COc1cc(Nc2nccc(N3CCC[C@H](C(=O)NCCc4ccc(C)c(C)c4)C3)n2)cc(OC)c1OC` [Example 97, (S)-N-(2-(3,4-dimethylphenyl)ethyl)-1-(2-((3,4,5-trimethoxyphenyl)amino)-4-pyrimidinyl)-3-piperidinecarboxamide] belongs 1000 to 5000 nM; to `COc1cc(Nc2nccc(N3CCC[C@H](C(=O)NC[C@@H](C)c4ccccc4)C3)n2)cc(OC)c1OC` [Example 98, (S)-N-((S)-2-phenylpropyl)-1-(2-((3,4,5-trimethoxyphenyl)amino)-4-pyrimidinyl)-3-piperidinecarboxamide], 100 to 1000 nM. Turning to `COc1cc(Nc2nccc(N3CCC[C@H](C(=O)NCCc4ccccc4Cl)C3)n2)cc(OC)c1OC` [Example 99, (S)-N-(2-(2-chlorophenyl)ethyl)-1-(2-((3,4,5-trimethoxyphenyl)amino)-4-pyrimidinyl)-3-piperidinecarboxamide], the half-maximal inhibitory concentration (IC50) under setting [1] lay within 1000 to 5000 nM.

With `COc1cc(Nc2nccc(N3CCC[C@H](C(=O)NCCc4ccc(F)cc4)C3)n2)cc(OC)c1OC` [Example 100, (S)-N-(2-(4-fluorophenyl)ethyl)-1-(2-((3,4,5-trimethoxyphenyl)amino)-4-pyrimidinyl)-3-piperidinecarboxamide], the IC50 under setting [1] was 100 to 1000 nM. Consider `COc1cc(Nc2nccc(N3CCC[C@H](C(=O)NC[C@H](C)c4ccccc4)C3)n2)cc(OC)c1OC` [Example 101, (S)-N-((R)-2-phenylpropyl)-1-(2-((3,4,5-trimethoxyphenyl)amino)-4-pyrimidinyl)-3-piperidinecarboxamide], for which, under setting [1], the half-inhibitory concentration (IC50) lay in the range of 1000 to 5000 nM.

Take `COc1cc(Nc2nccc(N3CCC[C@H](C(=O)NCCc4ccccc4F)C3)n2)cc(OC)c1OC` [Example 102, (S)-N-(2-(2-fluorophenyl)ethyl)-1-(2-((3,4,5-trimethoxyphenyl)amino)-4-pyrimidinyl)-3-piperidinecarboxamide]: the IC50 under setting [1] was in the range of 100 to 1000 nM. In the case of `COc1cc(Nc2nccc(N3CCC[C@H](C(=O)NCc4cccc(F)c4)C3)n2)cc(OC)c1OC` [Example 104, (S)-N-(3-fluorobenzyl)-1-(2-((3,4,5-trimethoxyphenyl)amino)-4-pyrimidinyl)-3-piperidinecarboxamide], the IC50 under setting [1] lay in the range of 100 to 1000 nM.

On to `COc1cc(Nc2nccc(N3CCC[C@H](C(=O)NCc4cccc(Oc5ccc(Cl)cc5)c4)C3)n2)cc(OC)c1OC` [Example 105, (S)-N-(3-(4-chlorophenoxy)benzyl)-1-(2-((3,4,5-trimethoxyphenyl)amino)-4-pyrimidinyl)-3-piperidinecarboxamide], for which, under setting [1], the IC50 was 1000 to 5000 nM.

Consider `COc1cc(Nc2nccc(N3CCC[C@H](C(=O)NCc4cccc(-c5ccc(Cl)cc5)c4)C3)n2)cc(OC)c1OC` [Example 106, (S)-N-((4′-chloro-3-biphenylyl)methyl)-1-(2-((3,4,5-trimethoxyphenyl)amino)-4-pyrimidinyl)-3-piperidinecarboxamide], for which the IC50 under setting [1] is < 50 nM. Consider `COc1cc(Nc2nccc(N3CCC[C@H](C(=O)NCc4cccc(-c5ccc(F)cc5)c4)C3)n2)cc(OC)c1OC` [Example 108, (S)-N-((4′-fluoro-3-biphenylyl)methyl)-1-(2-((3,4,5-trimethoxyphenyl)amino)-4-pyrimidinyl)-3-piperidinecarboxamide], for which the IC50 under setting [1] was < 50 nM. For the compound `CCOC(=O)C(C)Cc1cccc(CNC(=O)[C@H]2CCCN(c3ccnc(Nc4cc(OC)c(OC)c(OC)c4)n3)C2)c1` (stereo partly drawn) [Example 109, ethyl 2-methyl-3-(3-(((((S)-1-(2-((3,4,5-trimethoxyphenyl)amino)-4-pyrimidinyl)-3-piperidinyl)carbonyl)amino)methyl)phenyl)propanoate], the IC50 under setting [1] fell in the range of 100 to 1000 nM. On to `COc1cc(Nc2nccc(N3CCC[C@H](C(=O)NCc4cccc(-n5cccc5)c4)C3)n2)cc(OC)c1OC` [Example 110, (S)-N-(3-(1H-pyrrol-1-yl)benzyl)-1-(2-((3,4,5-trimethoxyphenyl)amino)-4-pyrimidinyl)-3-piperidinecarboxamide], for which the IC50 under setting [1] was < 50 nM.

For the compound `COc1cc(Nc2nccc(N3CCC[C@H](C(=O)NCc4cccc(-n5cccn5)c4)C3)n2)cc(OC)c1OC` [Example 111, (S)-N-(3-(1H-pyrazol-1-yl)benzyl)-1-(2-((3,4,5-trimethoxyphenyl)amino)-4-pyrimidinyl)-3-piperidinecarboxamide], the IC50 under setting [1] lay within 100 to 1000 nM. Turning to `COc1cc(Nc2nccc(N3CCC[C@H](C(=O)NCc4cccc(Br)c4)C3)n2)cc(OC)c1OC` [Example 113, (S)-N-(3-bromobenzyl)-1-(2-((3,4,5-trimethoxyphenyl)amino)-4-pyrimidinyl)-3-piperidinecarboxamide], the IC50 under setting [1] is < 50 nM. On to `COc1cc(Nc2nccc(N3CCC[C@H](C(=O)NCc4cccc(Oc5ccc(C)cc5)c4)C3)n2)cc(OC)c1OC` [Example 114, (S)-N-(3-(4-methylphenoxy)benzyl)-1-(2-((3,4,5-trimethoxyphenyl)amino)-4-pyrimidinyl)-3-piperidinecarboxamide], for which the IC50 under setting [1] fell in the range of 1000 to 5000 nM.

On to `COc1cc(Nc2nccc(N3CCC[C@H](C(=O)NCc4ccc(C#N)cc4)C3)n2)cc(OC)c1OC` [Example 115, (S)-N-(4-cyanobenzyl)-1-(2-((3,4,5-trimethoxyphenyl)amino)-4-pyrimidinyl)-3-piperidinecarboxamide], for which the IC50 under setting [1] lay within 100 to 1000 nM. Same read-out and setting: to `COc1cc(Nc2nccc(N3CCC[C@H](C(=O)NCc4ccc(Oc5ccccc5)cc4)C3)n2)cc(OC)c1OC` [Example 116, (S)-N-(4-phenoxybenzyl)-1-(2-((3,4,5-trimethoxyphenyl)amino)-4-pyrimidinyl)-3-piperidinecarboxamide] belongs 50 to 100 nM; to `COc1cc(Nc2nccc(N3CCC[C@H](C(=O)NCc4ccc(C(C)C)cc4)C3)n2)cc(OC)c1OC` [Example 117, (S)-N-(4-(1-methylethyl)benzyl)-1-(2-((3,4,5-trimethoxyphenyl)amino)-4-pyrimidinyl)-3-piperidinecarboxamide], < 50 nM. Same read-out and setting: to `COc1cc(Nc2nccc(N3CCC[C@H](C(=O)NCc4ccc(Oc5ccc(Cl)cc5)cc4)C3)n2)cc(OC)c1OC` [Example 118, (S)-N-(4-(4-chlorophenoxy)benzyl)-1-(2-((3,4,5-trimethoxyphenyl)amino)-4-pyrimidinyl)-3-piperidinecarboxamide] belongs 100 to 1000 nM; to `COc1cc(Nc2nccc(N3CCC[C@H](C(=O)NCc4ccc(Oc5ccc(C)cc5)cc4)C3)n2)cc(OC)c1OC` [Example 119, (S)-N-(4-(4-methylphenoxy)benzyl)-1-(2-((3,4,5-trimethoxyphenyl)amino)-4-pyrimidinyl)-3-piperidinecarboxamide], 100 to 1000 nM; to `COc1cc(Nc2nccc(N3CCC[C@H](C(=O)NCc4ccc(-c5cc(Cl)cc(Cl)c5)cc4)C3)n2)cc(OC)c1OC` [Example 120, (S)-N-((3′,5′-dichloro-4-biphenylyl)methyl)-1-(2-((3,4,5-trimethoxyphenyl)amino)-4-pyrimidinyl)-3-piperidinecarboxamide], 1000 to 5000 nM. The same measure, in the same setting: the figure for `COc1cc(Nc2nccc(N3CCC[C@H](C(=O)NCc4ccc(-c5ccccc5Cl)cc4)C3)n2)cc(OC)c1OC` [Example 121, (S)-N-((2′-chloro-4-biphenylyl)methyl)-1-(2-((3,4,5-trimethoxyphenyl)amino)-4-pyrimidinyl)-3-piperidinecarboxamide] is 100 to 1000 nM; for `COc1cc(Nc2nccc(N3CCC[C@H](C(=O)NCc4ccc(S(C)(=O)=O)cc4)C3)n2)cc(OC)c1OC` [Example 122, (S)-N-(4-(methylsulfonyl)benzyl)-1-(2-((3,4,5-trimethoxyphenyl)amino)-4-pyrimidinyl)-3-piperidinecarboxamide] it is 1000 to 5000 nM; for `COc1cc(Nc2nccc(N3CCC[C@H](C(=O)NCc4ccc(-c5ccc(F)cc5)cc4)C3)n2)cc(OC)c1OC` [Example 123, (S)-N-((4′-fluoro-4-biphenylyl)methyl)-1-(2-((3,4,5-trimethoxyphenyl)amino)-4-pyrimidinyl)-3-piperidinecarboxamide] it is 100 to 1000 nM. In the case of `COc1cc(Nc2nccc(N3CCC[C@H](C(=O)NCc4ccc(NC(C)=O)cc4)C3)n2)cc(OC)c1OC` [Example 124, (S)-N-(4-(acetylamino)benzyl)-1-(2-((3,4,5-trimethoxyphenyl)amino)-4-pyrimidinyl)-3-piperidinecarboxamide], the IC50 under setting [1] fell in the range of 1000 to 5000 nM.

Compound `COc1cc(Nc2nccc(N3CCC[C@H](C(=O)NCCCc4ccccc4)C3)n2)cc(OC)c1OC` [Example 126, (S)-N-(3-phenylpropyl)-1-(2-((3,4,5-trimethoxyphenyl)amino)-4-pyrimidinyl)-3-piperidinecarboxamide] gave a concentration for half-maximal inhibition (IC50) of 5000 to 10000 nM.
